Test results published in paper PMC10338470, “Phase 1 study of GSK3368715, a type I PRMT inhibitor, in patients with advanced solid tumors” (British Journal of Cancer, 2023).

Assays:
[1] = in vivo; cited from earlier work
lymphomas = tested on: lymphomas; parameters: method as in PMID 31257072; conditions: lymphomas ref [6]; cited from earlier work
global ADMA levels = tested on: global ADMA levels; parameters: method as in PMID 31257072; conditions: preclinical cancer models ref [6]; cited from earlier work
[2] = Safety margins of starting dose from toxicity studies in dogs; format: in vivo; conditions: 50 mg starting dose
[3] = tested on: advanced-stage solid tumors; test: Best overall response per RECIST 1.1; format: in vivo, human
Description: Adverse events were coded using the standard MedDRA groupings and graded according to NCI-CTCAE version 5.0. Clinical chemistry, urinalysis, and coagulation tests were performed predose on days 1, 8, 15, 22, and weekly thereafter. Tumor imaging occurred every 8 weeks until week 33, and then every 16 weeks thereafter. Adverse events and DLTs were summarized descriptively by dose cohort. Pharmacokinetic parameters of GSK3368715 and its metabolites (GSK3963583 and GSK3983164) were estimated in the PK/PD population (all participants for whom a PK sample was obtained) using a noncompartmental analysis model (WinNonlin version 8.1) and summarized descriptively. Best overall response as per RECIST 1.1 was summarized descriptively by dose cohort. Levels of tumor cell and plasma pharmacodynamic biomarkers were also summarized descriptively.

[4] = tested on: acute myeloid leukemia (AML) cell lines; parameters: method as in PMID 31257072; conditions: acute myeloid leukemia (AML) cell lines ref [6]; cited from earlier work
protein SDMA = test: Protein SDMA in formalin-fixed paired tumor biopsies; format: in vivo, human

CCOCC1(COCC)CCC(c2[nH]ncc2CN(C)CCNC)CC1 [GSK3368715]
TEEs reported in preclinical models [1]: no TEEs | Cell lines with cytotoxic responses (lymphomas): 56% | Time of maximal decreases in global ADMA levels (global ADMA levels): 72 h | Safety margin for the steady state AUC [2]: 16 fold | Safety margin for the steady state Cmax [2]: 33 fold | Best response: Complete response ([3]; 50 mg (n = 3)): 0 n (%) | Best response: Missing ([3]; 50 mg (n = 3)): 0 n (%) | Best response: Not evaluable ([3]; 50 mg (n = 3)): 1 (33) n (%) | Best response: Partial response ([3]; 50 mg (n = 3)): 0 n (%) | Best response: Progressive disease ([3]; 50 mg (n = 3)): 2 (67) n (%) | Best response: Stable disease ([3]; 50 mg (n = 3)): 0 n (%) | Overall response rate: Complete response + partial response ([3]; 50 mg (n = 3)): 0 n (%) | Best response: Complete response ([3]; 100 mg (n = 16)): 0 n (%) | Best response: Missing ([3]; 100 mg (n = 16)): 0 n (%) | Best response: Not evaluable ([3]; 100 mg (n = 16)): 0 n (%) | Best response: Partial response ([3]; 100 mg (n = 16)): 0 n (%) | Best response: Progressive disease ([3]; 100 mg (n = 16)): 10 (63) n (%) | Best response: Stable disease ([3]; 100 mg (n = 16)): 6 (38) n (%) | Overall response rate: Complete response + partial response ([3]; 100 mg (n = 16)): 0 n (%) | Best response: Complete response ([3]; 200 mg (n = 12)): 0 n (%) | Best response: Missing ([3]; 200 mg (n = 12)): 3 (25) n (%) | Best response: Not evaluable ([3]; 200 mg (n = 12)): 0 n (%) | Best response: Partial response ([3]; 200 mg (n = 12)): 0 n (%) | Best response: Progressive disease ([3]; 200 mg (n = 12)): 6 (50) n (%) | Best response: Stable disease ([3]; 200 mg (n = 12)): 3 (25) n (%) | Overall response rate: Complete response + partial response ([3]; 200 mg (n = 12)): 0 n (%) | Patients with stable disease among patients with MTAP gene deletion ([3]; 6 patients with MTAP gene deletion): 2 | Patients with progressive disease among patients with MTAP gene deletion ([3]; 6 patients with MTAP gene deletion, treatment exposure 15 days to 37 days): 4 | Best response: Complete response ([3]; Total (N = 31)): 0 n (%) | Best response: Missing ([3]; Total (N = 31)): 3 (10) n (%) | Best response: Not evaluable ([3]; Total (N = 31)): 1 (3) n (%) | Best response: Partial response ([3]; Total (N = 31)): 0 n (%) | Best response: Progressive disease ([3]; Total (N = 31)): 18 (58) n (%) | Best response: Stable disease ([3]; Total (N = 31)): 9 (29) n (%) | Disease stability, patients ([3]; all dose groups): 29% | Cell lines with cytotoxic responses [4]: 50% | Patients with increased protein SDMA in formalin-fixed paired biopsies (protein SDMA; 7/8 patients): 88% | Median increase of protein SDMA in formalin-fixed paired biopsies (protein SDMA; range −28 to 155%): 48.9%
